According to article PMC4644118 (Journal of medicinal chemistry, 2015):

Tests used:
rat nNOS = rat nNOS (Rattus norvegicus, UniProt P29476); experiment: hemoglobin capture assay, purified rat nNOS; assay type: biochemical; conditions: relative to 21
[1] = mice; background statement on previous lead; cited from earlier work

| Structure (SMILES) | fold weaker binding to nNOS than 21 (rat nNOS) [fold] | oral bioavailability and brain permeation [1] |
| --- | --- | --- |
| Cl.Cl.Nc1ccc2ccc(COc3cccnc3)cc2n1 [Compound 11, 7-[(Pyridin-3-yloxy)methyl]quinolin-2-amine Dihydrochloride] | ~17 |  |
| Cl.Cl.Nc1ccc2ccc(CCNCCc3cccc(F)c3)cc2n1 [Compound 1] |  | good oral bioavailability and brain permeation |
